{"source": "PubChem BioAssay AID256", "about": "(DTP/NCI, 2004)", "tested_on": "CD2F1 mice, L1210 leukemia ip, survival T/C", "assay": "NCI In Vivo Anticancer Drug Screen. Data for tumor model L1210 Leukemia (intraperitoneal) in CD2F1 (CDF1) mice", "conditions": "endpoint: mean survival time, higher = longer survival", "procedure,_shortened": "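Compound-dosed mice with transplantable tumor versus matched vehicle controls; endpoint ratio T/C reported.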", "note": "“And” between values parts separate entries of the source, which are not always exact repeats. Equal values may be shown once. Toxic doses and inconclusive results are not listed.", "data": [{"smiles": "COc1cc([C@@H]2c3cc4c(cc3[C@@H](OC3OC5CO[C@@H](c6cccs6)OC5C(O)C3O)[C@H]3COC(=O)[C@H]23)OCO4)cc(OC)c1O", "note": "(some centres undefined)", "values": [{"measurement": "T/C", "setting": "dose: 0.25 mg/kg/injection, schedule: Q01DX009 (ip), vehicle: saline", "result": "115 % of control"}, {"measurement": "T/C", "setting": "dose: 0.25 mg/kg/injection, schedule: Q03HX016 (ip), vehicle: saline", "result": "152 % of control"}, {"measurement": "T/C", "setting": "dose: 0.25 mg/kg/injection, schedule: Q03HX024 (ip), vehicle: saline", "result": "169 % of control and 173 % of control"}, {"measurement": "T/C", "setting": "dose: 0.5 mg/kg/injection, schedule: Q01DX009 (sc), vehicle: saline", "result": "110 % of control"}, {"measurement": "T/C", "setting": "dose: 0.5 mg/kg/injection, schedule: Q03HX008 (ip), vehicle: saline", "result": "164 % of control"}, {"measurement": "T/C", "setting": "dose: 0.5 mg/kg/injection, schedule: Q03HX016 (ip), vehicle: saline", "result": "246 % of control"}, {"measurement": "T/C", "setting": "dose: 0.5 mg/kg/injection, schedule: Q03HX024 (ip), vehicle: saline", "result": "256 % of control and 323 % of control"}, {"measurement": "T/C", "setting": "dose: 1.0 mg/kg/injection, schedule: Q01DX005 (ip), vehicle: saline", "result": "153 % of control"}, {"measurement": "T/C", "setting": "dose: 1.0 mg/kg/injection, schedule: Q01DX009 (ip), vehicle: saline", "result": "123 % of control and 231 % of control and 106 % of control"}, {"measurement": "T/C", "setting": "dose: 1.0 mg/kg/injection, schedule: Q03HX008 (ip), vehicle: saline", "result": "192 % of control"}, {"measurement": "T/C", "setting": "dose: 1.0 mg/kg/injection, schedule: Q03HX016 (ip), vehicle: saline", "result": "544 % of control"}, {"measurement": "T/C", "setting": "dose: 1.0 mg/kg/injection, schedule: Q03HX024 (ip), vehicle: saline", "result": "441 % of control and 514 % of control"}, {"measurement": "T/C", "setting": "dose: 2.0 mg/kg/injection, schedule: Q01DX001 (sc), vehicle: saline", "result": "113 % of control"}, {"measurement": "T/C", "setting": "dose: 2.0 mg/kg/injection, schedule: Q01DX005 (ip), vehicle: saline", "result": "204 % of control"}, {"measurement": "T/C", "setting": "dose: 2.0 mg/kg/injection, schedule: Q01DX009 (ip), vehicle: saline", "result": "202 % of control and 109 % of control"}, {"measurement": "T/C", "setting": "dose: 2.0 mg/kg/injection, schedule: Q01DX009 (oral), vehicle: saline", "result": "114 % of control"}, {"measurement": "T/C", "setting": "dose: 2.0 mg/kg/injection, schedule: Q01DX009 (sc), vehicle: saline", "result": "166 % of control"}, {"measurement": "T/C", "setting": "dose: 2.0 mg/kg/injection, schedule: Q03HX008 (ip), vehicle: saline", "result": "173 % of control"}, {"measurement": "T/C", "setting": "dose: 2.0 mg/kg/injection, schedule: Q03HX016 (ip), vehicle: saline", "result": "313 % of control"}, {"measurement": "T/C", "setting": "dose: 2.0 mg/kg/injection, schedule: Q03HX024 (ip), vehicle: saline", "result": "89 % of control"}, {"measurement": "T/C", "setting": "dose: 4.0 mg/kg/injection, schedule: Q01DX001 (ip), vehicle: saline", "result": "158 % of control"}, {"measurement": "T/C", "setting": "dose: 4.0 mg/kg/injection, schedule: Q01DX001 (sc), vehicle: saline", "result": "123 % of control"}, {"measurement": "T/C", "setting": "dose: 4.0 mg/kg/injection, schedule: Q01DX005 (ip), vehicle: saline", "result": "87 % of control"}, {"measurement": "T/C", "setting": "dose: 4.0 mg/kg/injection, schedule: Q01DX009 (ip), vehicle: saline", "result": "210 % of control and 112 % of control"}, {"measurement": "T/C", "setting": "dose: 4.0 mg/kg/injection, schedule: Q01DX009 (sc), vehicle: saline", "result": "102 % of control"}, {"measurement": "T/C", "setting": "dose: 4.0 mg/kg/injection, schedule: Q04DX003 (ip), vehicle: saline", "result": "209 % of control"}, {"measurement": "T/C", "setting": "dose: 4.0 mg/kg/injection, schedule: Q08DX002 (ip), vehicle: saline", "result": "164 % of control"}, {"measurement": "T/C", "setting": "dose: 8.0 mg/kg/injection, schedule: Q01DX001 (ip), vehicle: saline", "result": "239 % of control"}, {"measurement": "T/C", "setting": "dose: 8.0 mg/kg/injection, schedule: Q01DX001 (oral), vehicle: saline", "result": "122 % of control"}, {"measurement": "T/C", "setting": "dose: 8.0 mg/kg/injection, schedule: Q01DX009 (oral), vehicle: saline", "result": "102 % of control"}, {"measurement": "T/C", "setting": "dose: 8.0 mg/kg/injection, schedule: Q04DX003 (ip), vehicle: saline", "result": "169 % of control and 251 % of control"}, {"measurement": "T/C", "setting": "dose: 8.0 mg/kg/injection, schedule: Q08DX002 (ip), vehicle: saline", "result": "346 % of control"}, {"measurement": "T/C", "setting": "dose: 16.0 mg/kg/injection, schedule: Q01DX001 (ip), vehicle: saline", "result": "254 % of control"}, {"measurement": "T/C", "setting": "dose: 16.0 mg/kg/injection, schedule: Q01DX001 (sc), vehicle: saline", "result": "153 % of control"}, {"measurement": "T/C", "setting": "dose: 32.0 mg/kg/injection, schedule: Q01DX001 (ip), vehicle: saline", "result": "87 % of control"}, {"measurement": "T/C", "setting": "dose: 32.0 mg/kg/injection, schedule: Q01DX001 (sc), vehicle: saline", "result": "156 % of control"}, {"measurement": "T/C", "setting": "dose: 32.0 mg/kg/injection, schedule: Q04DX003 (ip), vehicle: saline", "result": "454 % of control"}, {"measurement": "T/C", "setting": "dose: 32.0 mg/kg/injection, schedule: Q08DX002 (ip), vehicle: saline", "result": "114 % of control"}]}, {"smiles": "CC1(C)C2C(Br)C3OC(=O)C(C2C(=O)O)C31", "note": "(centres undefined)", "values": [{"measurement": "T/C", "setting": "dose: 100.0 mg/kg/injection, schedule: Q01DX009 (ip), vehicle: saline with Tween-80", "result": "96 % of control"}, {"measurement": "T/C", "setting": "dose: 100.0 mg/kg/injection, schedule: Q04DX003 (ip), vehicle: saline with Tween-80", "result": "91 % of control"}, {"measurement": "T/C", "setting": "dose: 200.0 mg/kg/injection, schedule: Q01DX009 (ip), vehicle: saline with Tween-80", "result": "96 % of control"}, {"measurement": "T/C", "setting": "dose: 200.0 mg/kg/injection, schedule: Q04DX003 (ip), vehicle: saline with Tween-80", "result": "96 % of control"}, {"measurement": "T/C", "setting": "dose: 400.0 mg/kg/injection, schedule: Q01DX009 (ip), vehicle: saline with Tween-80", "result": "93 % of control"}, {"measurement": "T/C", "setting": "dose: 400.0 mg/kg/injection, schedule: Q04DX003 (ip), vehicle: saline with Tween-80", "result": "91 % of control"}]}]}
